Results as given in patent US20230011398A1, “COMBINATION THERAPY APPROACH TO ELIMINATE HIV INFECTIONS” (priority 2019, published 2023).

Legend:
[1] = system: HIV-1-infected cells and uninfected bystander T cells; assay: Mixed culture of HIV-1-infected and CellTrace Violet-labeled uninfected T cells; conditions: alone or together, 0.2 μM BMS-626529 present, 48 h
Method: To determine the specificity in the killing of HIV-1 infected cells, uninfected CD4 cells were labeled with CellTrace Violet dye (ThermoFisher Scientific) and mixed with HIV-1-infected cells at the ratio of 1:1. The cells were resuspended in RIPMI complete medium containing 0.2 μM BMS-626529, with 0.1 μM IDB, 0.2 μM ABT-263 and 2 μM SAR405 as indicated for 48 h. The cells were incubated with 1 μM FITC-DEVD-FMK, followed by staining with APC-Annexin and analyses by flow cytometry.

HIV-1-infected T cells = assay: Annexin V / DEVD-FITC / p24 cell death assay in T cells with or without HIV-1 infection; assay type: cell-based, human; conditions: for IDB-induced killing of T cells latently infected by HIV-1: added to 0.1 μM IDB, SAR405 2 μM or ABT-263 0.2 μM; for IDB-induced cell death in HIV-1-infected CMT: autophagy inhibitor added to 100 nM IDB, 24 h
Method: Naïve T cells, activated T cells, CMT or EMT with or without infection with HIV-1 (NL4-3, 1 MOI) were cultured for 4 days in the presence of 30 nM CCL19 and 0.3 ng/ml IL-2 for 4 days to establish latent HIV infection. […] The cells were then incubated with 1 μM FITC-DEVD-FMK (Biovision), followed by staining with APC-Annexin V (Biolegend) and intracellular staining with PE-anti-HIV p24. The cells were analyzed by flow cytometry. The percentage of cell death was calculated by the loss of live cells negative for annexin V and DEVD staining by comparing treated and untreated groups: (untreated—treated)/untreated x 100%.

[2] = system: CMT latently infected with HIV-1; assay: HIV-1 latency reversal in latently infected central memory T cells (p24 staining, HIV-1 mRNA RT-PCR); assay type: cell-based, human; conditions: for number of HIV-1 p24-producing T cells after latency reversal: latently infected CMT stimulated with IDB, SAR405 2 μM or CQ 10 μM
Excerpt: Flow cytometry. The following antibodies from Biolegend were used for flow cytometry: Pacific Blue-anti-mouse CD45 (1:100, 103126, clone 30-F11,) APC-anti-human CD45 (1:100, 304012, clone HI30), Pacific Blue-anti-human CD19 (1:100, 302232, clone HIB19), PE-anti-human CD4 (1:100, 317414, clone OKT4), APC/Fire-750-anti-human CD8 (1:100, 34474, clone SK1), FITC-anti-human CD56 (1:100, 392413, clone QA17A16), Pacific Blue-anti-human CD19 (1:100, 302232, clone HIB19), Pacific Blue-anti-human CD3 (1:100, 300329, clone HIT3a), PE/Cy7-anti-HLA-HLA-DR, DP, DQ (1:100, 361708, clone Tü139), PerCP/Cy5.5-anti-human CD11b (1:100, 301327, clone ICRF44), APC/Fire-750-anti-human CD163 (1:100, 333633, clone GHI/61), PE-anti-human CD123 (1:100, 306005, clone 6H6), Alexa Fluor 488 anti-human CD11c (1:100, 301618, clone 3.9), PerCP/Cy5.5-anti-human CD3 (1:100, 300328, clone HIT3a), PerCP/Cy5.5 anti-human CD123 (1:100, 306016, clone 6H6), FITC-anti-mouse CD45 (1:100, 103108, clone 30-F11), PE/Cy7 anti-human CD197 (CCR7) (1:100, 353226, clone G043H7), PE-anti-human CD45R0 (1:100, 304244, clone UCHL1), FITC-anti-human CD45RA (1:100, 304148, clone HI100) and Alexa Fluor 488-anti-CD68 (1:30, 333812, clone Y1/82A), PerCP/Cy5.5-anti-human CD19 (1:100, 302230, clone HIB19), PE-anti-human CD27 (1:100, 356406, clone M-T271) and Pacific Blue-anti-human IgD (1:100, 348224, clone IA6-2). PE-anti-human CD3 (1:100, 556612, clone SP34) and V50-anti-human CD4 (1:100, 560345, clone RPA-T4) were from BD Biosciences. The cells stained with indicated antibodies were analyzed using a BD LSR II flow cytometer (BD Biosciences). To detect HIV-1 p24, spleen cells from Hu-HSC mice were stimulated with 5 μg/ml PHA (Sigma) and 6 ng/ml IL-2 (Biolegend). The cells were stained for T cell markers, followed by fixation and permeabilization using the Cytofix/Cytoperm buffer (BD Bioscience) and intracellular staining with PE-conjugated anti-p24 (1:30, 6604667, clone KC57, Beckman Coulter). The cells were analyzed by flow cytometry using a BD LSR II flow cytometer (BD Bioscience) and FlowJo software (version 10.5.3, BD Bioscience).
T cell isolation and infection with HIV-1. Peripheral blood mononuclear cells (PBMCs) of anonymous healthy donors from the Gulf Coast Blood Center were used to purify CD4^+ T cells with anti-CD4 MACS beads (Miltenyi Biotec). CD3^+CD4^+CD45RA^+CD45RO^−CCR7^+ naïve T cells, CD3^+CD4^+CD45RA^−CD45RO^+CCR7+ central memory T cells (CMT) and CD3^+CD4^+CD45RA^−CD45RO^+CCR7^− effector memory T cells (EMT) were sorted using a BD FACSAria flow cytometer (BD Bioscience). Naive CD4^+ T cells were stimulated with 5 μg/ml PHA and 6 ng/ml IL-2 in RPMI complete medium for 2 days to generate activated CD4^+ T cells. Sorted T cell subsets or activated T cells were infected with HIV-1 CXCR4-tropic NL4-3 or CCRS-tropic AD8 (both virus clones were obtained from the NIH AIDS Reagent Program) at the indicated MOI for 2 h. The cells were washed with PBS and cultured in RPMI complete medium containing 30 nM CCL19 (Biolegend) and 0.3 ng/ml IL-2 (Biolegend) and for 4 days to establish latent HIV infection as described.
Naïve T cells, activated T cells, CMT or EMT with or without infection with HIV-1 (NL4-3, 1 MOI) were cultured for 4 days in the presence of 30 nM CCL19 and 0.3 ng/ml IL-2 for 4 days to establish latent HIV infection. The cells with or without HIV-1 infections were stimulated with 0.1 μM IDB (Ingenol-3,20-dibenzonate, ENZO Life Sciences) in the presence of 0.2 μM ABT-263 (Adooq Bioscience), 2 μM SAR405 (MedChemExpress) or 10 μM chloroquine (CQ, Sigma) as indicated for 48 h. The cells were then incubated with 1 μM FITC-DEVD-FMK (Biovision), followed by staining with APC-Annexin V (Biolegend) and intracellular staining with PE-anti-HIV p24. The cells were analyzed by flow cytometry. The percentage of cell death was calculated by the loss of live cells negative for annexin V and DEVD staining by comparing treated and untreated groups: (untreated—treated)/untreated x 100%. […]

[3] = system: HIV-1-infected Hu-HSC mice; assay: SECH treatment of HIV-1-infected Hu-HSC mice (HIV-1 by RT-PCR, rebound after withdrawal); assay type: in vivo; conditions: JQ1 25 mg/kg b.w. included in SECH
Method: Raltegravir and BMS-663068 (20 mg/kg b.w.) were included as the ART regimen daily. Mice in the control group received ART only daily.
Quantification of HIV-1 mRNA and DNA. HIV-1 mRNA was measured by RT-PCR similar to the described protocols. […] The reaction was carried out by iTaq Universal Probes Supermix (Bio-Rad) with a QuantStudio 5 Real-Time PCR System and analyzed with the QuantStudio Design and Analysis Software (Applied Biosystem). Cycle threshold (Ct) values were calibrated using standard curve generated with the standard samples with known amounts of viral copies.
Spleen cells were isolated and red blood cells were lysed with ammonium chloride lysing buffer (0.15 M NH4Cl, 10 mM KHCO3, 0.1 mM EDTA). Bone marrow cells were collected from femur and tibia. […]
Generation of humanized mice for HIV-1 infection and cure studies. […] Three months later, reconstitution of human immune cells in mouse peripheral blood was determined by flow cytometry. […]
Raltegravir and BMS-663068 (20 mg/kg b.w.) alone were also administered on the alternate days. […] During treatments, mice were monitored daily for body weight, food consumption and mobilities. […]
Peripheral blood was collected at different intervals to detect HIV-1 mRNA by RT-PCR. […] Virus clearance was determined in the spleen, bone marrow by RT-PCR, TZA assay and p24 intracellular staining.

[4] = system: splenocytes of HIV-1-infected Hu-HSC mice; assay: PHA stimulation of splenocytes from Hu-HSC mice 10 days after HIV-1 infection; assay type: cell-based; conditions: PHA 24 h
Method: FIGS. 11A-11C show analyses of Hu-HSC mice by flow cytometry. (FIG. 11A) Flow cytometry analyses of immune cells in the peripheral blood of Hu-HSC mice. NK, nature killer cells; DC, dendritic cells; M1, M1 macrophages; M2, M2 macrophages. (FIG. 11B) Spleen cells were isolated from Hu-HSC mice (n=4) 10 days post HIV-1 infection and cultured with or without PHA for 24 h. Culture media were collected for HIV-1 mRNA determination by RT-PCR. Data are presented as mean ±SD. PHA vs. control, **p=0.0088 (unpaired two-tailed t test). (FIG. 11C) Spleen cells treated in (b) were stained for CD4, followed by intracellular staining of HIV-1 p24 and flow cytometry analysis. […] Data are presented as mean ±SD. PHA vs. control, **p=0.0003 (unpaired two-tailed t test).
Flow cytometry. […] The cells stained with indicated antibodies were analyzed using a BD LSR II flow cytometer (BD Biosciences). […] The cells were analyzed by flow cytometry using a BD LSR II flow cytometer (BD Bioscience) and FlowJo software (version 10.5.3, BD Bioscience).

Molecule: CC1(C)CCC(c2ccc(Cl)cc2)=C(CN2CCN(c3ccc(C(=O)NS(=O)(=O)c4ccc(N[C@H](CCN5CCOCC5)CSc5ccccc5)c(S(=O)(=O)C(F)(F)F)c4)cc3)CC2)C1 [ABT-263, navitoclax]
- killing of HIV-1-infected cells in mixed culture [1]: killed HIV-1-infected cells
- killing of uninfected bystander cells in mixed culture [1]: resistant
- loss of viable HIV-1 p24+ cells in IDB-stimulated HIV-1-infected cells (HIV-1-infected T cells; ABT-263 0.2 μM with IDB, 48 h): significantly increased
- IDB-induced killing of T cells latently infected by HIV-1 (HIV-1-infected T cells; 48 h): increased IDB-mediated cell death

Molecule: CCN(CC)CCCC(C)Nc1ccnc2cc(Cl)ccc12 (centres unmarked) [CQ, Chloroquine]
- IDB-induced cell death in HIV-1-infected CMT (HIV-1-infected T cells): promoted
- number of HIV-1 p24-producing T cells after latency reversal [2]: reduced the number of HIV-1 p24-producing T cells

Molecule: Cc1sc2c(c1C)C(c1ccc(Cl)cc1)=N[C@@H](CC(=O)OC(C)(C)C)c1nnc(C)n1-2 [JQ1]
- HIV-1 reactivation and clearance on inclusion of JQ1 in SECH [3]: further increased HIV-1 reactivation and clearance

Molecule: C[C@@H]1COCCN1c1cc(=O)n2c(n1)N(Cc1cncc(Cl)c1)[C@H](C(F)(F)F)CC2 [SAR405]
- killing of HIV-1-infected cells in mixed culture [1]: killed HIV-1-infected cells
- killing of uninfected bystander cells in mixed culture [1]: resistant
- IDB-induced killing of T cells latently infected by HIV-1 (HIV-1-infected T cells; 48 h): increased IDB-induced killing
- IDB-induced cell death in HIV-1-infected CMT (HIV-1-infected T cells): promoted
- induction of HIV-1 p24 expression by IDB-induced latency reversal ([2]; CMT infected with HIV-1 AD8 at 1 MOI): inhibited
- number of HIV-1 p24-producing T cells after latency reversal [2]: decreased the number of HIV-1 p24-producing T cells

Molecule: phytohemagglutinin [PHA]
- expression of HIV-1 mRNA in splenocytes [4]: induced the expression of HIV-1 mRNA
- production of Gag p24 in CD4+ T cells [4]: production of Gag p24
- latency reversal of HIV-1 shown by induction of p24 expression ([2]; CMT, HIV-1 NL4-3 0.1 MOI, 4 days latency): led to latency reversal of HIV-1
- latency reversal observed by expression of HIV-1 mRNA after stimulation ([2]; latently infected cells, pol RT-PCR): Latency reversal was also observed
